Results taken from US12304894B2, “Derivatives of adamantyl oxadiazoles and pharmaceutically acceptable solvates, hydrates and salts thereof, pharmaceutical composition comprising same, synthesis method, suitable for use as effective and selective inhibitors of the reductase activity of the enzyme 11-beta dehydrogenase type 1 …” (PONTIFICIA UNIVERSIDAD CATOLICA DE CHILE, priority 2019, dated 2025).
Values after ≈ are worked out from the molar mass of the structure shown.

Assays:
plasma proteins = assay: Plasma protein binding (Transil XL PPB Binding Kit); format: in vitro ADME
Excerpt: To carry out this study, the commercial Transil XL PPB Binding Kit, v2, Sovicell was used, following the manufacturer's recommendations.

[1] = In vivo pharmacokinetics in mice, IV and oral; set-up: species or system male C57BL/6J mice
Procedure: The animals were classified according to weight and divided into the following groups (Table 7):
20% Kolliphor and 50% PBS at a concentration of 1 mg/mL. From this solution, a 0.4 mg/mL dilution was made for IV administration.
In intravenous (IV) administration, after each compound was administered to the mice, the mice were separated into groups of 3 and were euthanized at times 5, 10, 15, 30, 60, 120, 240, 260, 480 and 1440 minutes. For oral administration (V.O), the mice were separated into groups of 3 and were euthanized at times 15, 30, 60, 120, 240, 260, 480 and 1440 minutes. To obtain zero-time assays, mice were used to which no compound was administered.
Whole blood was obtained from each animal (in microtubes with EDTA); these samples were centrifuged at 9000 g at a temperature of 4° C. for a period of 5 minutes, obtaining the plasma which was stored at −80° C.
In addition, organs such as brain, liver, muscle, epididymal fat, heart and kidney were obtained from the animals, which were frozen in liquid nitrogen and stored at −80° C.
Plasma samples and brain, liver, epididymal fat, and muscle (tissue) samples were analyzed. 2× in volume of water (weight/volume) was added to the tissue samples while 4× in volume of water (weight/volume) was added to the muscle mixture, after which they were homogenized using a Bullet Blender equipment (Next Advance, USA).
All samples were analyzed as a single point by LC-MS/MS in accordance with the analytical methodology already standardized and presented in application example 3.
To begin, a calibration curve was run. For this purpose, the controls, the plasma and organ samples were prepared by adding 180 μL of cold acetonitrile to these, then vortexed for 15 seconds and centrifuged at 6100 g for 30 seconds at 4° C. The supernatant which was obtained from this procedure was diluted in 2 volumes of 0.2% formic acid in water and transferred to a vial that will allow it to be injected into LC-MS/MS.
The conditions for the LC-MS/MS analysis were: • HPLC: Eksigent UltraLC 100 • Autosampler: Eksigent UltraLC 100-XL at RT • Mobile phase: A-0.1% formic acid in water; B-0.1% formic acid in acetonitrile. • Column: YMC Triart 1.9 μm; 2.0×50 mm • Injection volume: 2 μL • Gradient: 5% B for 0.25 min→5-95% B for 0.75 min→95% B for 2 min→95-5% B for 0.25 min→5% B for 0.25 min • Flow: 0.6 mL/min • Mass Spectrometer: Applied Biosystems/SCIEX QTRAP 4500 • Interface: TurbolonSpray (ESI) at 600° C. • Software: Analyst.

[2] = Aqueous solubility in the gastrointestinal pH range; format: physicochemical
Procedure: A stock solution of 100 mM was prepared in DMSO that was added in volumes established on the buffers until the appearance of turbidity was observed. These solutions were prepared in triplicate in final DMSO concentrations of 0.5 to 5.0% V/V of each buffer, then were incubated at 37° C. with vigorous stirring for 48 hours, then another 48 hours but without stirring. The samples were centrifuged and the supernatant was diluted with mobile phase chromatography to be later analyzed by μHPLC-Ms/Ms. The solubility value at each pH was obtained from the intercept of the straight line solubility versus % DMSO. Table 6 presents the aqueous solubility values of BD-40 in the pH range 1.2-6.8.

11β-HSD2 = 11β-HSD2 oxidase activity in human hepatic microsomes (HTRF Cortisol Kit); format: biochemical; details: remaining activity at 100 nM compound
Procedure: Determination of 11β-HSD2 Oxidase Activity
The concentration of cortisone produced in the reaction, with and without the compounds, was determined using the Cortisol Kit (Cisbio) product in order to evaluate the 11β-HSD2 oxidase activity.
As in the previous assays, the compounds are reconstituted in DMSO to 10 mM stock, in order to subsequently make serial dilutions to determine the efficacy curve.
To perform the assay, the HTRF plate was prepared containing Tris buffer, 100 nM cortisol and 200 μM NAD^+. Enzyme is added to the corresponding wells in a 4:1 ratio, respectively, and incubated for 2 hours at 37° C. For the kit control, two wells are added only with Tris buffer.
After the incubation time, the reagents of the Cortisol kit, Cortisol d2 and Cortisol cryptate, in a sample ratio, Cortisol d2 and cortisol cryptate 2:1:1 are added. For the negative control, cortisol d2 was replaced in some wells by the kit's reconstitution buffer. The plate was incubated for 1 hour at room temperature to later read at 665 and 620 nm.
For this purpose, the reaction buffer was prepared and subsequently, in a plate for HTRF, the reaction buffer, the microsomes in a concentration of 5 mg/mL and the compound in a ratio of 3:1:1, respectively, were added to each well. In the case of reaction controls, the reaction buffer without cortisol and without compound is included for the negative control. For the positive control, no compound is added, and for the kit controls, only the reaction buffer is added to the negative and positive control wells.
After incubating the plate for 2 hours, the reagents of the cortisol kit, cortisol d2 and cortisol cryptate, are added to the corresponding wells as indicated above. They are then incubated at room temperature for 1 hour to finally read the 665 and 620 nm fluorescence.

[3] = test system: Madin-Darby Canine Kidney (MDCK) cells transfected with human P-glycoprotein (hMDR1); details: MDCK-MDR1
Procedure: Madin-Darby Canine Kidney (MDCK) cells were used in this assay, which are stably transfected with the gene encoding human P-glycoprotein (hMDR1). These cells were cultured in DMEM medium (Dulbecco's Modified Eagle's Medium) high in glucose and supplemented with 10% fetal bovine serum, 1% 5 mM pyruvate, 1% non-essential amino acids solution X5, 20,000 IU/mL of penicillin G and 20,000 IU/mL of streptomycin, a temperature of 37° C., 90% relative humidity and 5% CO2. These cells were seeded in sterile plates on the fourth day of growth or until reaching 90% confluence.
Ten days before carrying out the transport analysis, cells were seeded in Transwells® inserts (1.12 cm2) at a density of 60,000 cells/cm^2. The monolayers were supplemented every two days with fresh culture medium. […] In parallel, B-A experiments were performed (1.5 mL of donor solution in basolateral compartment and 0.5 mL buffer in apical). The monolayers were incubated while stirring (50 rpm) at a temperature of 37° C. for a period of 2 hours. Additionally, this assay was performed in the presence of the Pgp inhibitor elacridar (5 μM). After the stir time, the inserts were removed, the compartments were sampled and the cells were transferred to HPLC vials by diluting these samples with mobile phase chromatography. These samples were kept at −20° C. until their analysis time. […]

## Cc1cccc(CCc2nc(C34CC5CC(CC(C5)C3)C4)no2)c1 [BD-40, 1-(3-methylphenyl)-2-(3-adamantyl-1,2,4-oxadiazol-5-yl)ethane]
Plasma proteins
  plasma protein binding: 98.3±1.9%
[1]; IV, 2 mg/Kg, plasma
  AUCExtr: 5.240%
  AUCInf: 623 ng·h/mL
  AUCfinal: 649 ng·h/mL
  C0/Cmax: 2200 ng/mL
  CL: 53.5 mL/min/kg
  MRTInf: 87.6 min
  Vz: 15.30 L/kg
  t1/2: 198 min
[1]; PO, dose 3 mg/Kg, plasma
  AUCExtr: 3.6%
  AUCInf: 596 ng·h/mL
  AUCfinal: 575 ng·h/mL
  C0/Cmax: 393 ng/mL
  CL: 280 mL/min/kg
  F: 19.1%
  Vz: 168 L/kg
  t1/2: 32.3 min
  tmax: 30 min
[1]; administered intravenously, plasma
  mean time (of elimination) of the drug: 3.30 h
[1]; administered orally, plasma
  mean time (of elimination) of the drug: 0.864 h
[1]; oral and intravenous administration
  detection in tissues (brain, liver, fat, muscle): can be detected in the different tissues
[1]; plasma
  bioavailability / apparent availability: good bioavailability
[2]; pH 1.7, 37° C.
  Solubility: 96.16 µg/mL (≈ 298 µM)
[2]; pH 4.5, 37° C.
  Solubility: 64.12 µg/mL (≈ 199 µM)
[2]; pH 6.8, 37° C.
  Solubility: 59.23 µg/mL (≈ 184 µM)
11β-HSD2
  11b-HSD2 oxidase (activ rem %) Microcosms 100 nM: 97.9%
[3]
  Papp compared with high permeability marker minoxidil: higher than those of the high permeability marker minoxidil
